Marks after values point to notes of the source that are not given here.
Key:
[1] = system: CXCL8 induced chemotaxis of PMNs; assay: CXCL8 induced chemotaxis of human PMNs; assay type: cell-based; conditions: CXCL8 10^−9 M; for inhibition at 0.001 µM / inhibition at 0.01 µM: Homo sapiens; for inhibition at 0.001 µM / CXCL8 (% inhibition at 10^−9 M): compound at 10^−9 M; for inhibition at 0.01 µM: read-out: CXCL8 (% inhibition), tested at 10^−8 M
Protocol: (§1) The compounds of the invention of formula (I) were evaluated in vitro for their ability to inhibit chemotaxis of polymorphonucleate leukocytes (hereinafter referred to as PMNs) and monocytes induced by the fractions of CXCL8 and GRO-α. For this purpose, in order to isolate the PMNs from heparinized human blood, taken from healthy adult volunteers, mononucleates were removed by means of sedimentation on dextran (W. J. Ming et al., J. Immunol., 138, 1469, 1987). The cell vitality was calculated by exclusion with Trypan blue, whilst the ratio of the circulating polymorphonucleates was estimated on the cytocentrifugate after staining with Diff Quick.
In the CXCL8 induced chemotaxis assay human recombinant CXCL8 (Pepro Tech) was used as stimulating agent in the chemotaxis experiments: the lyophilized protein was dissolved in a volume of HBSS containing 0.2% bovin serum albumin (BSA) in order to obtain a stock solution having a concentration of 10^−5 M to be diluted in HBSS to a concentration of 10^−9 M, for the chemotaxis assays.
(§2) In the chemotaxis experiments, the PMNs were incubated with the compounds of the invention of formula (I) for 15′ at 37° C. in an atmosphere containing 5% CO2. During the chemotaxis assay (W. Falket et al., J. Immunol. Methods, 33, 239, 1980) PVP-free filters with a porosity of 5 μm and microchambers suitable for replication were used.
(§3) The compounds of the invention in formula (I) were evaluated at a concentration ranging between 10^−6 and 10^−10 M; for this purpose they were added, at the same concentration, both to the lower pores and the upper pores of the microchamber. Evaluation of the ability of the compounds of the invention of formula (I) to inhibit the chemotaxis of human monocytes was carried out according to a disclosed method (J. Van Damme et al., Eur. J. Immunol., 19, 2367, 1989).

[2] = system: GRO-α induced chemotaxis of PMNs; assay: GRO-α (CXCL1) induced chemotaxis of human PMNs; assay type: cell-based; conditions: compound at 10^−8 M; for inhibition at 0.01 µM: Homo sapiens
Protocol: as §1
GRO-α induced chemotaxis inhibition was evaluated in an analogous assay.
as §2, §3

[3] = system: transient cerebral ischemia induced by occlusion of the middle cerebral artery; assay: Transient cerebral ischemia by middle cerebral artery (MCA) occlusion in rats; assay type: in vivo; conditions: short-term effect (24 hours)
Protocol: The compounds of the present invention are particularly useful in the prevention and treatment of damages caused by ischemia/reperfusion, specifically in the protection from the functional injury induced by temporary cerebral middle cerebral artery (MCA) occlusion. Specifically, compound 3a was evaluated in terms of efficacy in a model of transient cerebral ischemia induced in rats by occlusion of the middle cerebral artery (MCA). The short-term effect (24 hours) of 3a on cerebral myeloperoxidase (MPO) activity, a marker of PMN infiltration, brain damage and neurological deficits, was investigated.

[4] = compound at 10^−8 M (footnote *)

| SMILES | inhibition at 0.001 µM [1] | inhibition at 0.01 µM [2] | other results |
| --- | --- | --- | --- |
| C[C@H](C(=O)O)c1ccc(Nc2nc(C(F)(F)F)co2)cc1 [Compound 19, (2S)-2-(4-{[4-(Trifluoromethyl)-1,3-oxazol-2-yl]amino}phenyl)propanoic acid] | 44 ± 10% | 36 ± 11% | – |
| C[C@H](C(=O)O)c1ccc(N(C)c2nc(C(F)(F)F)co2)cc1 [Compound 20, (2S)-2-(4-{Methyl[4-(trifluoromethyl)-1,3-oxazol-2-yl]amino}phenyl)propanoic acid] | 47 ± 8% | 44 ± 7% | – |
| C[C@H](C(=O)O)c1ccc(Nc2nc(C(C)(C)C)cs2)cc1 [Compound 7, (2S)-2-{4-[(4-tert-Butyl-1,3-thiazol-2-yl)amino]phenyl}propanoic acid] | 50 ± 8% | 45 ± 10% | – |
| C[C@H](C(N)=O)c1ccc(N(C)c2nc(C(F)(F)F)cs2)cc1 [Compound 14, (2S)-2-(4-{Methyl[4-(trifluoromethyl)-1,3-thiazol-2-yl]amino}phenyl)propanamide] | 45 ± 14% | 34 ± 13% | – |
| C[C@H](C(=O)O)c1ccc(N(C)c2nc(C(F)(F)F)cs2)cc1 [Compound 9, (2S)-2-(4-{methyl[4-(trifluoromethyl)-1,3-thiazol-2-yl]amino}phenyl)propanoic acid] | 41 ± 7% | 40 ± 12% | – |
| C[C@H](C(=O)N[C@H](C)C(=O)O)c1ccc(Nc2nc(C(F)(F)F)cs2)cc1 [Compound 16, (2R)-2-{[(2S)-2-(4-{[4-(Trifluoromethyl)-1,3-thiazol-2-yl]amino}phenyl)propanoyl]amino}propanoic acid] | 42 ± 7% | 30 ± 15% | – |
| C[C@H](C(=O)NO)c1ccc(Nc2nc(C(F)(F)F)cs2)cc1 [Compound 10, (2S)—N-Hydroxy-2-(4-{[4-(trifluoromethyl)-1,3-thiazol-2-yl]amino}phenyl) propanamide] | 51 ± 10% | 47 ± 12% | – |
| CC(C)(C(=O)O)c1ccc(Nc2nc(C(F)(F)F)cs2)cc1 [Compound 2, 2-Methyl-2-(4-{[4-(trifluoromethyl)-1,3-thiazol-2-yl]amino}phenyl)propanoic acid] | 56 ± 10% | 42 ± 9% | – |
| C[C@H](C(=O)NS(C)(=O)=O)c1ccc(Nc2nc(C(F)(F)F)co2)cc1 [Compound 21, (2S)—N-(Methylsulfonyl)-2-(4-{[4-(trifluoromethyl)-1,3-oxazol-2-yl]amino}phenyl) propanamide] | – | – | CXCL8 (% inhibition at 10^−9 M) [1]: 43 ± 6%; CXCL1 (% inhibition at 10^−8 M) [2]: 37 ± 2% |
| CC(C)[C@H](NC(=O)[C@@H](C)c1ccc(Nc2nc(C(F)(F)F)cs2)cc1)C(=O)O [Compound 17, (2S)-3-Methyl-2-{[(2S)-2-(4-{[4-(trifluoromethyl)-1,3-thiazol-2-yl]amino}phenyl)propanoyl]amino}butanoic acid] | 39 ± 2% | 40 ± 12% | melting point: 99 to 101 °C |
| Cc1csc(Nc2ccc([C@H](C)C(=O)O)cc2)n1 [Compound 5, (2S)-2-{4-[(4-Methyl-1,3-thiazol-2-yl)amino]phenyl}propanoic acid] | 40 ± 11% | 38 ± 10% | – |
| C[C@H](NC(=O)[C@@H](C)c1ccc(Nc2nc(C(F)(F)F)co2)cc1)C(N)=O [Compound 25, (2S)—N-[(1S)-2-Amino-1-methyl-2-oxoethyl]-2-(4-{[4-(trifluoromethyl)-1,3-oxazol-2-yl]amino}phenyl) propanamide] | 46 ± 12% | 39 ± 14% | – |
| CC(C(=O)O)c1ccc(Nc2nc(C(F)(F)F)co2)cc1 (stereo not drawn) [Compound 18, 2-{4-[(4-Trifluoromethyl)-oxazol-2-yl]amino}phenyl propionic] | – | 60 ± 9% | inhibition at 0.01 µM [1, 4]: 47 ± 12% |
| C[C@H](C(=O)O)c1ccc(Nc2nc(C(F)(F)F)cs2)cc1 [Compound 3, (2S)-2-(4-{[4-(Trifluoromethyl)-1,3-thiazol-2-yl]amino}phenyl)propanoic acid] | 66 ± 11% | 58 ± 6% | – |
| CC(C(=O)O)c1ccc(Nc2nc(C(F)(F)F)cs2)cc1 (stereo not drawn) [Compound 1, 2-(4-{[4-(Trifluoromethyl)-1,3-thiazol-2-yl]amino}phenyl)propanoic acid] | – | 40 ± 6% | inhibition at 0.01 µM [1, 4]: 43 ± 7% |
| C[C@H](C(N)=O)c1ccc(Nc2nc(C(F)(F)F)co2)cc1 [Compound 22, (2S)-2-(4-{[4-(Trifluoromethyl)-1,3-oxazol-2-yl]amino}phenyl) propanamide] | 58 ± 5% | 49 ± 6% | – |
| C[C@H](C(N)=O)c1ccc(Nc2nc(C(C)(C)C)cs2)cc1 [Compound 15, (2S)-2-{4-[(4-tert-Butyl-1,3-thiazol-2-yl)amino]phenyl}propanamide] | 48 ± 8% | 45 ± 10% | – |
| C[C@H](C(N)=O)c1ccc(N(C)c2nc(C(F)(F)F)co2)cc1 [Compound 23, (2S)-2-(4-{Methyl-[4-(trifluoromethyl)-1,3-oxazol-2-yl]amino}phenyl)propanamide] | 45 ± 13% | 39 ± 2% | – |
| C[C@H](NC(=O)[C@@H](C)c1ccc(Nc2nc(C(F)(F)F)co2)cc1)C(=O)O [Compound 24, (2S)-2-{[(2S)-2-(4-{[4-(Trifluoromethyl)-1,3-oxazol-2-yl]amino}phenyl)propanoyl]amino}propanoic acid] | – | 34 ± 8% | inhibition at 0.01 µM [1, 4]: 54 ± 12% |
| C[C@H](C(N)=O)c1ccc(Nc2nc(C(F)(F)F)cs2)cc1 [Compound 13] | 47 ± 3% | 44 ± 9% | melting point: 204 to 205 °C |
| Cc1csc(Nc2ccc(C(C)C(=O)O)cc2)n1 (stereo not drawn) [Compound 4, 2-{4-[(4-Methyl-1,3-thiazol-2-yl)amino]phenyl}propanoic acid] | – | 45 ± 10% | inhibition at 0.01 µM [1, 4]: 46 ± 6% |
| CC(C(=O)O)c1ccc(N(C)c2nc(C(F)(F)F)cs2)cc1 (stereo not drawn) [Compound 8, 2-(4-{Methyl[4-(trifluoromethyl)-1,3-thiazol-2-yl]amino}phenyl)propanoic acid] | – | 39 ± 10% | inhibition at 0.01 µM [1, 4]: 45 ± 5% |
| C[C@H](C(=O)NS(C)(=O)=O)c1ccc(Nc2nc(C(F)(F)F)cs2)cc1 [Compound 11, (2S)—N-(Methylsulfonyl)-2-(4-{[4-(trifluoromethyl)-1,3-thiazol-2yl]amino}phenyl) propanamide] | 54 ± 16% | 39 ± 7% | – |
| C[C@H](C(=O)[O-])c1ccc(Nc2nc(C(F)(F)F)cs2)cc1.[Na+] [Compound 3a, Sodium (2S)-2-(4-{[4-(trifluoromethyl)-1,3-thiazol-2-yl]amino}phenyl)propanoate] | – | – | PMN infiltrate (cerebral myeloperoxidase (MPO) activity) [3]: efficacious in reducing PMN infiltrate; infarct size (brain damage) [3]: efficacious in reducing; neurological functions (neurological deficits) [3]: improving significantly neurological functions; CXCL8 (% inhibition at 10^−9 M) [1]: 64 ± 9%; CXCL1 (% inhibition at 10^−8 M) [2]: 55 ± 8% |
| CC(C(=O)O)c1ccc(Nc2nc(C(C)(C)C)cs2)cc1 (stereo not drawn) [Compound 6, 2-{4-[(4-tert-Butyl-1,3-thiazol-2-yl)amino]phenyl}propanoic acid] | – | 36 ± 10% | inhibition at 0.01 µM [1, 4]: 55 ± 10% |
| C[C@H](C(=O)NS(=O)(=O)C(F)(F)F)c1ccc(Nc2nc(C(F)(F)F)cs2)cc1 [Compound 12] | – | – | CXCL8 (% inhibition), tested at 10^−8 M [1, 4]: 48 ± 13* %; CXCL1 (% inhibition at 10^−8 M) [2]: 30 ± 7% |

From US8624036B2, “2-aryl-propionic acids and derivatives and pharmaceutical compositions containing them” (Dompe S.p.A., priority 2008, dated 2014)
